Laboratory results from patent US5856341A, “Benzo [B] indeno [2,1-D] thiophene compounds, intermediates, processes, compositions and methods” (Eli Lilly and Company, priority 1997, dated 1999).

What was measured:
femur = assay: Osteoporosis Test Procedure: bone protection in ovariectomized rats, 35 days oral; assay type: in vivo; details: 35 days, relative to ovariectomy
Experimental: Following the General Preparation Procedure, infra, the rats are treated daily for 35 days (6 rats per treatment group) and sacrificed by carbon dioxide asphyxiation on the 36th day. The 35 day time period is sufficient to allow maximal reduction in bone density, measured as described herein. At the time of sacrifice, the uteri are removed, dissected free of extraneous tissue, and the fluid contents are expelled before determination of wet weight in order to confirm estrogen deficiency associated with complete ovariectomy. […] The uteri are then placed in 10% neutral buffered formalin to allow for subsequent histological analysis. The right femurs are excised and digitilized x-rays generated and analyzed by an image analysis program (NIH image) at the distal metaphysis. The proximal aspect of the tibiae from these animals are also scanned by quantitative computed tomography. In accordance with the above procedures, compounds of the instant invention and ethynyl estradiol (EE2) in 20% hydroxypropyl β-cyclodextrin are orally administered to test animals. Distal femur metaphysis and proximal tibiae data are the results of formula I compound treatments compared to intact and ovariectomized test animals. Results are reported as percent protection relative to ovariectomy in Table 2 below.

Eosinophil peroxidase = assay: Uterine Eosinophil Peroxidase (EPO) Assay in ovariectomized rats; assay type: in vivo, Sprague Dawley rats; details: daily for 4 days, OVX rats
Experimental: (§1) In the examples illustrating the methods, a postmenopausal model was used in which effects of different treatments upon circulating lipids were determined.
(§2) Seventy-five day old female Sprague Dawley rats (weight range of 200 to 225 g) were obtained from Charles River Laboratories (Portage, Mich.). The animals were either bilaterally ovariectomized (OVX) or exposed to a Sham surgical procedure at Charles River Laboratories, and then shipped after one week. Upon arrival, they were housed in metal hanging cages in groups of 3 or 4 per cage and had ad libitum access to food (calcium content approximately 0.5%) and water for one week. Room temperature was maintained at 22.2°±1.7° C. with a minimum relative humidity of 40%. The photoperiod in the room was 12 hours light and 12 hours dark.
(§3) Dosing Regimen Tissue Collection. After a one week acclimation period (therefore, two weeks post-OVX) daily dosing with test compound was initiated. 17α-ethynyl estradiol or the test compound were given orally, unless otherwise stated, as a suspension in 1% carboxymethylcellulose or dissolved in 20% cyclodextrin. Animals were dosed daily for 4 days. Following the dosing regimen, animals were weighed and anesthetized with a ketamine: xylazine (2:1, V:V) mixture and a blood sample was collected by cardiac puncture. The animals were then sacrificed by asphyxiation with CO2, the uterus was removed through a midline incision, and a wet uterine weight was determined.
Uterine Eosinophil Peroxidase (EPO) Assay. Uteri were kept at 4° C. until time of enzymatic analysis. The uteri were then homogenized in 50 volumes of 50 mM Tris buffer (pH-8.0) containing 0.005% Triton X-100. Upon addition of 0.01% hydrogen peroxide and 10 mM O-phenylenediamine (final concentrations) in Tris buffer, increase in absorbance was monitored for one minute at 450 nm. The presence of eosonophils in the uterus is an indication of estrogenic activity of a compound. The maximal velocity of a 15 second interval was determined over the initial, linear portion of the reaction curve.
(§4) Source of Compound: 17α-ethynyl estradiol was obtained from Sigma Chemical Co., St. Louis, Mo.
As is expressed in the data below, estrogenicity also was assessed by evaluating the adverse response of eosinophil infiltration into the uterus.
(§5) The data presented in Table 1 below reflects the response of 5 to 6 rats per treatment.

[1] = test system: MCF-7 breast adenocarcinoma cells; assay: MCF-7 Proliferation Assay (tritiated thymidine incorporation); assay type: cell-based; details: Homo sapiens, MCF7; 48 hours with drug, then tritiated thymidine 4 hours; read-out: ED50 (MCF-7 proliferation)
Experimental: MCF-7 breast adenocarcinoma cells (ATCC HTB 22) were maintained in MEM (minimal essential medium, phenol red-free, Sigma, St. Louis, Mo.) supplimented with 10% fetal bovine serum (FBS) (V/V), L-glutamine (2 mM), sodium pyruvate (1 mM), HEPES {(N-[2-hydroxyethyl]piperazine-N'-[2-ethanesulfonic acid]10 mM}, non-essential amino acids and bovine insulin (1 μg/mL) (maintenance medium). Ten days prior to assay, MCF-7 cells were switched to maintenance medium supplemented with 10% dextran coated charcoal stripped fetal bovine serum (DCC-FBS) assay medium) in place of 10% FBS to deplete internal stores of steroids. MCF-7 cells were removed from maintenance flasks using cell dissociation medium (Ca^++ /Mg^++ free HBSS (phenol red-free) supplemented with 10 mM HEPES and 2 mM EDTA). Cells were washed twice with assay medium and adjusted to 80,000 cells/mL. Approximately […] (8,000 cells) were added to flat-bottom microculture wells (Costar 3596) and incubated at 37° C. in a 5% CO2 humidified incubator for 48 hours to allow for cell adherence and equilibration after transfer. Serial dilutions of drugs or DMSO as a diluent control were prepared in assay medium and […] to triplicate microcultures followed by […] assay medium for a final volume of […]. After an additional 48 hours at 37° C. in a 5% CO2 humidified incubator, microcultures were pulsed with tritiated thymidine (1 uCi/well) for 4 hours. Cultures were terminated by freezing at -70° C. for 24 hours followed by thawing and harvesting of microcultures using a Skatron Semiautomatic Cell Harvester. Samples were counted by liquid scintillation using a Wallace BetaPlace β counter. Results in Table 3 below show the ED50 (nM) for certain compounds of the instant invention: […]

serum cholesterol = assay: Serum cholesterol in ovariectomized rats (Cholesterol Analysis); assay type: in vivo, Sprague Dawley rats; details: daily for 4 days, OVX rats
Experimental: as §1, §2, §3
Cholesterol Analysis. Blood samples were allowed to clot at room temperature for 2 hours, and serum was obtained following centrifugation for 10 minutes at 3000 rpm. Serum cholesterol was determined using a Boehringer Mannheim Diagnostics high performance cholesterol assay. Briefly the cholesterol was oxidized to cholest-4-en-3-one and hydrogen peroxide. The hydrogen peroxide was then reacted with phenol and 4-aminophenazone in the presence of peroxidase to produce a p-quinone imine dye, which was read spectrophotemetrically at 500 nm. Cholesterol concentration was then calculated against a standard curve.
as §4
(§6) Data presented in Table 1 below show comparative results among ovariectomized rats, rats treated with 17α-ethynyl estradiol (EE2; an orally available form of estrogen), and rats treated with certain compounds of the instant invention. […] This uterine response to estrogen is well recognized in the art.
as §5

uterus = assay: Uterine weight in ovariectomized rats, 4 days daily oral dosing (postmenopausal model); assay type: in vivo, Sprague Dawley rats; details: daily for 4 days, OVX rats
Experimental: as §1, §2, §3, §4, §6, §5

## Cl.Oc1ccc2c3c(sc2c1)-c1ccccc1C3c1ccc(OCCN2CCCCC2)cc1 (stereo not drawn) [Example 6, 10-[4-[2-(1-Piperidinyl)ethoxy]phenyl]-7-hydroxy benzo[b]indeno[2,1-d]thiophene hydrochloride]
femur; 0.01 mg/kg oral
  Femur BMD % protection: 40.4%
  Femur. % Protection (x-ray image): 53.8%
femur; 0.1 mg/kg oral
  Femur BMD % protection: 46.6%
  Femur. % Protection (x-ray image): 39.2%
femur; 1 mg/kg oral
  Femur BMD % protection: 66.6%
  Femur. % Protection (x-ray image): 73.4%
femur; 10 mg/kg oral
  Femur BMD % protection: 64.0%
  Femur. % Protection (x-ray image): 48.2%
Eosinophil peroxidase; 0.1 mg/kg PO
  Uterine Eosinophil peroxidase, Vmax: 2.9
Eosinophil peroxidase; 1 mg/kg PO
  Uterine Eosinophil peroxidase, Vmax: 3.7
Eosinophil peroxidase; 10 mg/kg PO
  Uterine Eosinophil peroxidase, Vmax: 29.8
[1]
  IC50: 10 nM
Serum cholesterol; 0.1 mg/kg PO
  Serum Cholest. % Decrease verses ovariectomized controls: 1.3%
Serum cholesterol; 1 mg/kg PO
  Serum Cholest. % Decrease verses ovariectomized controls: 40.6%
Serum cholesterol; 10 mg/kg PO
  Serum Cholest. % Decrease verses ovariectomized controls: 69.9%
uterus; 0.1 mg/kg PO
  Uterine Weight % Increase verses ovariectomized controls: 32.5%
uterus; 1 mg/kg PO
  Uterine Weight % Increase verses ovariectomized controls: 67.4%
uterus; 10 mg/kg PO
  Uterine Weight % Increase verses ovariectomized controls: 54.0%
